Measurements as given in ChEMBL document CHEMBL1268971, “4,5-Dihydro-1H-pyrazolo[4,3-h]quinazolines as potent and selective Polo-like kinase 1 (PLK1) inhibitors” (Bioorg Med Chem Lett, 2010).
The source made the active and inactive calls. The rule behind the calls is not given here.

Tests used:
HCT-116 [1] = assay: Induction of apoptosis in human HCT116 cells assessed as induction of PARP cleavage at 0.005 to 0.5 uM after 24 hrs; format: functional, cell-based
[2] = target: Serine/threonine-protein kinase PLK3 (Homo sapiens, UniProt Q9H4B4); assay: Inhibition of PLK3
[3] = Terminal half life in CD1 mouse at 10 mg/kg, iv administered as single dose by LC/MS/MS analysis; format: ADME, organism-based; design: dose 10 mg/kg, route intravenous; conditions: in vivo, read-out: beta t1/2 (converted)
[4] = target: Serine/threonine-protein kinase PLK2 (Homo sapiens, UniProt Q9NYY3); assay: Inhibition of PLK2
[5] = Intrinsic clearance in human liver microsomes; format: ADME, Microsome
NCI-H1993 = assay: Antiproliferative activity against human NCI-H1993 cells after 72 hrs by CellTiter-Glo assay; format: functional, cell-based; conditions: NCI-H1993, 72 h
[6] = Permeability of the compound by PAMPA; format: ADME
Mus musculus = assay: Toxicity in CD1 mouse xenografted with human HCT116 cells assessed as reversible body weight loss at 60 mg/kg, po daily administered on day 1, 2, 3 post-implantation in weekly schedule of 2 cycles; conditions: in vivo
U2OS = assay: Induction of cell cycle arrest in human U2OS cells assessed as accumulation of pSer10 histone H3-positive cells at 260 nM after 24 hrs by array scan assay
[7] = Antiproliferative activity against human A2780/ADR cells after 72 hrs by CellTiter-Glo assay; format: functional, cell-based
PANC-1 = assay: Antiproliferative activity against human PANC1 cells after 72 hrs by CellTiter-Glo assay; format: functional, cell-based; conditions: PANC-1, 72 h
A2780 = assay: cells; conditions: Homo sapiens, A2780, 72 h
MIA PaCa-2 = assay: Antiproliferative activity against human MIAPaCa2 cells after 72 hrs by CellTiter-Glo assay; format: functional, cell-based; conditions: MIA PaCa-2, 72 h
[8] = Oral bioavailability in CD1 mouse at 10 mg/kg administered as single dose by LC/MS/MS analysis; format: ADME, organism-based; conditions: in vivo
HCT-116 [9] = assay: Antitumor against human HCT116 cells xenografted in CD1 mouse assessed as tumor growth inhibition at 30 mg/kg, iv BID administered on day 1, 2 post-implantation in weekly schedule of 3 cycles measured on day 32; format: functional; conditions: read-out: TGI
LoVo = assay: Antiproliferative activity against human LoVo cells after 72 hrs by CellTiter-Glo assay; format: functional, cell-based

Sequence of Serine/threonine-protein kinase PLK3 (Q9H4B4 whole entry): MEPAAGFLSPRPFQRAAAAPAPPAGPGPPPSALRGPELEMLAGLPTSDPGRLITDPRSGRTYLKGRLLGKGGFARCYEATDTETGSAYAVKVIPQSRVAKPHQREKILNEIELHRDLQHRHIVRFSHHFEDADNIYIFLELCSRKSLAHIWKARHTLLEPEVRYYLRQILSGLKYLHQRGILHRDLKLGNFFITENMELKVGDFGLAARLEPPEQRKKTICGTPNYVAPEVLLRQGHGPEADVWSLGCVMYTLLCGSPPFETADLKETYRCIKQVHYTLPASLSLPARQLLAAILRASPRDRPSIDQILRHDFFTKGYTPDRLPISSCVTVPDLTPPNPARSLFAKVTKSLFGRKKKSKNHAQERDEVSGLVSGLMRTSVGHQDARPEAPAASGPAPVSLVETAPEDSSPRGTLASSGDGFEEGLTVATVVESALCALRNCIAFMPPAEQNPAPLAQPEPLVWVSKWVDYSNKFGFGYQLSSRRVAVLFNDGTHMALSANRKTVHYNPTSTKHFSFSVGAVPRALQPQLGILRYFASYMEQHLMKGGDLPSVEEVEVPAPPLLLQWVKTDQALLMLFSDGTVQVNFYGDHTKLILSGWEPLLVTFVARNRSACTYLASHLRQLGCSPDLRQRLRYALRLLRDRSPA
Sequence of Serine/threonine-protein kinase PLK2 (Q9NYY3 whole entry): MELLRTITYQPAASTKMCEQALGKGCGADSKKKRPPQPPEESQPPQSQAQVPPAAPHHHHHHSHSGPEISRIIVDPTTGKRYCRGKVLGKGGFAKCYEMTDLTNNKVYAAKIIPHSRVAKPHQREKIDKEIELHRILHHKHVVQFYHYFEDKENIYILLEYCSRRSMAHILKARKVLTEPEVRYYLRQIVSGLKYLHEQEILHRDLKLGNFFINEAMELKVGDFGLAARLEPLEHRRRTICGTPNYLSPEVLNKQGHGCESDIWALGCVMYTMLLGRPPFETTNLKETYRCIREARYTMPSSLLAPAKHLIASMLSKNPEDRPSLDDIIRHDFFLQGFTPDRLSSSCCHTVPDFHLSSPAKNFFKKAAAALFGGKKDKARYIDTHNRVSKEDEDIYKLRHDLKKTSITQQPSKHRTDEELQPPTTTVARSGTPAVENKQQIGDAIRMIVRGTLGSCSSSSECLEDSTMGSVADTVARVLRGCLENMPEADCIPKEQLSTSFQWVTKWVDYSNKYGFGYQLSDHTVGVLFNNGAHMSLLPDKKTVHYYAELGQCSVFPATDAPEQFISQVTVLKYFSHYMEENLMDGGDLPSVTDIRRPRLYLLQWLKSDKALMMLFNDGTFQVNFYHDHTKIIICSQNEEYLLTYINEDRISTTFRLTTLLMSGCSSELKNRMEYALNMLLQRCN

CN1CCN(c2ccc(OC(F)(F)F)c(Nc3ncc4c(n3)-c3c(c(C(N)=O)nn3C)CC4)c2)CC1
Activity (HCT-116 [1]): Active | IC50 [2]: 1440 nM | half-life [3]: 55.2 min | IC50 [4]: 3520 nM | CLint scaled [5]: 25.7 mL/min/kg | IC50 (NCI-H1993): 195 nM | Papp [6]: 50 ×10⁻⁶ cm/s | Activity (Mus musculus): 13% | Activity (U2OS): 20% | IC50 [7]: 51 nM | IC50 (PANC-1): 126 nM | IC50 (A2780): 21 nM | IC50 (MIA PaCa-2): 52 nM | bioavailability [8]: 21% | inhibition in vivo at 30 mg/kg (HCT-116 [9]): 81% | IC50 (LoVo): 7 nM
